Reference: patent US6110901A (priority 1992, dated 2000)
pIC50: −log10 of the molar value. Where “and” joins values, the source holds several entries; their conditions need not be identical. Equal values may be shown once. Read-outs that look alike come from different tables or passages of the source.

Legend:
[1] = tested on: influenza virus (strain A/NWS); assay: microbe, parasite or virus in culture; format: cell-based; conditions: MDCK, 48 h, read-out: IC50 Value Flu A/NWS
MDCK cells = assay: cells; format: cell-based; conditions: Canis lupus familiaris, 48 h, read-out: IC50 Value Tox (beside Flu A/NWS)
[2] = tested on: HRV 14 (human rhinovirus 14); assay: HRV 14 growth in HeLa cells by MTT cell viability assay; format: cell-based; conditions: Rhinovirus B, MTT at 48 hours after infection
Method: (§1) Mammalian cell lines, MDCK CCL34 and HeLa cells CCL2 (both obtained under those accession numbers from ATCC culture) are plated in 96 well microtiter dishes at a density of 3.5×10^4 cells per well and infected with virus at low multiplicity followed by treatment with drug 24 hours after plating of cells; drug concentrations range from 0.025-12.5 mM. MDCK cells are infected with influenza virus (strain A/NWS) and HeLA cells are infected with HRV 14-14VR-284 (obtained from ATCC) (human rhinovirus 14) or CVB3 VR30 (coxsackie virus B3 strain Nancy obtained from ATCC); replicate uninfected cell cultures are treated with drug as toxicity control. At 48 hours after infection the extent of virus growth is determined by ELISA in the case of influenza virus or by the MTT (tetrazolium dye) cell viability assay in the cases of HRV 14 and CVB3. The influenza A (A/NWS)VR-129 (ATCC) virus ELISA assay utilizes a primary monoclonal antibody to the virus hemagglutinin protein and a secondary antibody conjugated to B-galactosidase. Cytotoxicity of drugs in uninfected cell cultures is determined by MTT cell viability assay at 48 hours after drug treatment

[3] = tested on: influenza A virus (strain A/NWS); conditions: mouse, in vivo
HeLa cells = assay: Cytotoxicity in uninfected HeLa cell cultures, MTT cell viability assay; format: cell-based; conditions: MTT at 48 hours
Method: as §1

[4] = tested on: CVB3 (coxsackie virus B3 strain Nancy); assay: CVB3 growth in HeLa cells by MTT cell viability assay; format: cell-based; conditions: Enterovirus B, MTT at 48 hours after infection
Method: as §1

[5] = biological target: influenza virus RNA polymerase (Influenza A virus, UniProt P03431); format: biochemical
VSV RNA polymerase = VSV RNA polymerase (Vesicular stomatitis Indiana virus, UniProt P03523); format: biochemical, Vesicular stomatitus virus (VSV)
[6] = Homo sapiens, read-out: IC50 Value Tox (beside CVB3)
[7] = Homo sapiens, read-out: IC50 Value Tox (beside HRV 14)
[8] = read-out: IC50 Value Tox (beside CVB3)

SMILES | pIC50 [1] | pIC50 (MDCK cells) | pIC50 [2] | pIC50 (HeLa cells; [7]) | also measured
O=c1ccn([C@@H]2O[C@H](CO)C[C@H]2O)c(=O)[nH]1 [3'-dU, 3'-deoxyribouracil] | 4.07 | 1.90 | 4.57 | 2.62 | MST [3]: > 14 days and 10 days; Protection of animals in murine model of influenza A virus infection [3]: significant protection; Toxicity in mice [3]: appears to have toxicity; pIC50 (HeLa cells; [6]): 2.62; pIC50 [4]: 4.05
O=c1ccn([C@@H]2O[C@H](COP(=O)(O)OP(=O)(O)OP(=O)(O)O)C[C@H]2O)c(=O)[nH]1 [3'-d UTP, 3'-deoxy UTP] |  |  |  |  | Activity against the influenza virus RNA polymerase [5]: moderately active; Effect on VSV RNA polymerase (VSV RNA polymerase): little or no effect
CO[C@H]1[C@@H](O)[C@H](n2ccc(=O)[nH]c2=O)O[C@@H]1CO [3'-OMeU] |  | < 1.30 |  | < 1.30 | 
Nc1nc2c(ncn2[C@@H]2O[C@H](CO)C[C@H]2O)c(=O)[nH]1 [3'-dG, 3'-deoxyriboguanine] | 3.57 | 2.68 | 3.55 | 2.47 | 
Nc1nc2c(ncn2[C@@H]2O[C@H](COP(=O)(O)OP(=O)(O)OP(=O)(O)O)C[C@H]2O)c(=O)[nH]1 [3'-d GTP, 3'-deoxy-GTP] |  |  |  |  | % Inhibition [5]: 55%; Activity against the influenza virus RNA polymerase [5]: fairly good inhibitor; % Inhibition (VSV RNA polymerase): 13% and 7%; Effect on VSV RNA polymerase (VSV RNA polymerase): only weakly inhibitory
Nc1ccn([C@@H]2O[C@H](CO)C[C@H]2O)c(=O)n1 [3'-dC, 3'-deoxyribocytosine] | 3.05 | 2.30 | 4.60 | 2.74 | % ILS (increase in life span) [3]: 10% and 20%; % Survival (14 Days) [3]: 0% and 10%; Antiviral activity in murine model of influenza A virus infection [3]: minimal antiviral activity; MST [3]: 11 days and 12 days; pIC50 (HeLa cells; [6]): 2.74; pIC50 [4]: 4.05
CO[C@H]1[C@@H](O)[C@H](n2cnc3c(=O)[nH]c(N)nc32)O[C@@H]1CO [3'-OMeG] |  | < 1.30 |  | < 1.30 | 
CO[C@H]1[C@@H](O)[C@H](n2cnc3c(N)ncnc32)O[C@@H]1CO [3'-OMeA] |  | < 1.30 |  | < 1.30 | 
[N-]=[N+]=N[C@H]1C[C@H](n2ccc(N)nc2=O)O[C@@H]1CO [3'-AzdC] |  |  |  |  | pIC50 (HeLa cells; [8]): < 1.90
CO[C@H]1[C@@H](O)[C@H](n2ccc(N)nc2=O)O[C@@H]1CO [3'-OMeC] |  | < 1.30 |  | < 1.30 | 
Nc1ccn([C@@H]2O[C@H](COP(=O)(O)OP(=O)(O)OP(=O)(O)O)C[C@H]2O)c(=O)n1 [3'-d CTP, 3'-deoxy-CTP] |  |  |  |  | Activity against the influenza virus RNA polymerase [5]: low to moderately inhibitory activity; % Inhibition (VSV RNA polymerase): 0%; Effect on VSV RNA polymerase (VSV RNA polymerase): does not inhibit
[N-]=[N+]=N[C@H]1C[C@H](n2ccc(=O)[nH]c2=O)O[C@@H]1CO [3'-AzdU] |  |  |  |  | pIC50 (HeLa cells; [8]): < 1.90
Nc1ncnc2c1ncn2[C@@H]1O[C@H](CO)C[C@H]1O [3'-dA, 3'-deoxyriboadenine] | 3.10 | 2.85 | 4.32 | 3.89 | 
